Earlier results, collected in patent US5543414A, “Achiral amino acid acyl esters of ganciclovir and its derivatives” (priority 1994, dated 1996).
Structures can show the parent of a compound that is named as a salt. Where two headings read alike, the source gives them in different places.

Key:
[1] = not given; remark: listed apart in the source
[2] = in vivo
[3] = tested on: epithelial and stromal herpes simplex keratitis and associated iritis; conditions: glycine ester: 1% eye drop formulation, rabbits; acyclovir: ointment
[4] = not given; remark: listed apart in the source
[5] = tested on: viruses of the herpes family; conditions: e.g. herpes simplex, cytomegalovirus
[6] = oral administration
[7] = not given; remark: listed apart in the source
[8] = tested on: herpes simplex virus type 1 and type 2 strains; conditions: primary rabbit kidney cell cultures
[9] = not given; remark: listed apart in the source

SMILES: CC[C@H](N)C(=O)OCCOCn1cnc2c(=O)[nH]c(N)nc21
- amounts of the parent drug in the urine compared with acyclovir (rat, in vivo): greater amounts of the parent drug in the urine than acyclovir itself

SMILES: CC(N)C(=O)OCCOCn1cnc2c(=O)[nH]c(N)nc21 (racemic) [D,L-alanyl]
- amounts of the parent drug in the urine compared with acyclovir (rat, in vivo): greater amounts of the parent drug in the urine than acyclovir itself

SMILES: CC(C)C(N)C(=O)OCCOCn1cnc2c(=O)nc(N)[nH]c21 (racemic) [D,L-valyl]
- amounts of the parent drug in the urine compared with acyclovir (rat, in vivo): greater amounts of the parent drug in the urine than acyclovir itself

SMILES: CCC(C)C(N)C(=O)OCCOCn1cnc2c(=O)[nH]c(N)nc21 (racemic) [DL-isoleucyl]
- amounts of the parent drug in the urine compared with acyclovir (rats): greater amounts of the parent drug in the urine than acyclovir itself

SMILES: Nc1ncc2ncn(COCCO)c2n1 [6-deoxy-acyclovir]
- absorption and plasma levels of the parent drugs ([1]; oral administration, rats): efficient absorption from the gastro-intestinal tract and high plasma levels of the parent drugs
- conversion to parent drug [2]: readily converted in vivo by the action of enzymes

SMILES: Nc1ncc2ncn(COC(CO)CO)c2n1 [6-deoxy-ganciclovir]
- absorption and plasma levels of the parent drugs ([1]; rat, in vivo, po): efficient absorption from the gastro-intestinal tract and high plasma levels of the parent drugs
- conversion to parent drug [2]: readily converted in vivo by the action of enzymes

SMILES: C[C@H](N)C(=O)OCCOCn1cnc2c(=O)[nH]c(N)nc21 [L-alanyl]
- amounts of the parent drug in the urine compared with acyclovir (rat, in vivo): greater amounts of the parent drug in the urine than acyclovir itself

SMILES: CC[C@H](C)[C@H](N)C(=O)OCCOCn1cnc2c(=O)[nH]c(N)nc21 [L-isoleucyl]
- amounts of the parent drug in the urine compared with acyclovir (rat, in vivo): greater amounts of the parent drug in the urine than acyclovir itself

SMILES: CSCC[C@H](N)C(=O)OCCOCn1cnc2c(=O)[nH]c(N)nc21 [L-methionyl]
- amounts of the parent drug in the urine compared with acyclovir (rat, in vivo): greater amounts of the parent drug in the urine than acyclovir itself

SMILES: Nc1nc2c(ncn2COCCOC(=O)[C@@H]2CCCN2)c(=O)[nH]1 [L-prolyl ester]
- amounts of the parent drug in the urine compared with acyclovir (rat, in vivo): greater amounts of the parent drug in the urine than acyclovir itself

SMILES: CC(C)[C@H](N)C(=O)OCCOCn1cnc2c(=O)[nH]c(N)nc21 [L-valyl ester of acyclovir]
- amounts of the parent drug in the urine compared with acyclovir (rats): greater amounts of the parent drug in the urine than acyclovir itself
- ranking as prodrug of acyclovir (rats): the best prodrug of the esters investigated

SMILES: Nc1nc2c(ncn2COCCO)c(=O)[nH]1 [acyclovir, 2-(2-amino-1,6-dihydro-6-oxo-1,6-dihydro-purin-9-yl)methoxy-ethanol]
- efficacy in topical treatment of herpes simplex keratitis and iritis [3]: hardly effective in stromal disease or iritis
- water solubility [4]: limited solubility in water
- urinary recovery of acyclovir (rat, in vivo, po): 19%
- antiviral activity [5]: good activity against herpes viruses such as herpes simplex

SMILES: CCC(=O)OCC(COC(=O)CC)OCn1cnc2c(=O)[nH]c(N)nc21 [dipropionate ester]
- more bioavailable than ganciclovir itself [6]: about 42%

SMILES: Nc1nc2c(ncn2COC(CO)CO)c(=O)[nH]1 [ganciclovir, 9-[(2-hydroxy-1-hydroxymethyl-ethoxy)methyl]-guanine]
- antiviral activity [5]: highly efficacious against viruses of the herpes family, for example, against herpes simplex and cytomegalovirus

SMILES: NCC(=O)OCCOCn1cnc2c(=O)[nH]c(N)nc21 [glycyl ester of acyclovir]
- efficacy in topical treatment of herpes simplex keratitis and iritis [3]: efficacious in the topical treatment of epithelial and stromal herpes simplex keratitis and associated iritis
- amounts of the parent drug in the urine compared with acyclovir (rats): greater amounts of the parent drug in the urine than acyclovir itself
- solubility greater than the solubility of acyclovir itself [7]: about 30 fold

SMILES: CC(N)C(=O)OCCOCn1cnc2c(=O)[nH]c(N)nc21 (centres unmarked) [hydrochloride salt of the alanyl ester]
- activity against herpes simplex virus type 1 and type 2 compared with acyclovir [8]: almost as active as acyclovir itself

SMILES: NCC(=O)OCCOCn1cnc2c(=O)[nH]c(N)nc21 [hydrochloride salt of the glycyl ester]
- activity against herpes simplex virus type 1 and type 2 compared with acyclovir [8]: almost as active as acyclovir itself

SMILES: NCCC(=O)OCCOCn1cnc2c(=O)[nH]c(N)nc21 [hydrochloride salt of the β-alanyl ester]
- activity against herpes simplex virus type 1 and type 2 compared with acyclovir [8]: almost as active as acyclovir itself

SMILES: CCC(C)C(N)C(=O)OCCOCn1cnc2c(=O)[nH]c(N)nc21 (centres unmarked) [isoleucine ester of acyclovir]
- absorption from the gut compared with other esters and acyclovir ([9]; oral administration, preferably in the L-form): large increase in absorption from the gut after oral administration

SMILES: Nc1nc2c(ncn2COCCOC(=O)CCC(=O)O)c(=O)[nH]1 [sodium salt of the succinyl ester]
- activity against herpes simplex virus type 1 and type 2 compared with acyclovir [8]: almost as active as acyclovir itself

SMILES: CC(C)[C@H](N)C(=O)OCCOCn1cnc2c(=O)nc(N)[nH]c21 [valine ester of acyclovir]
- absorption from the gut compared with other esters and acyclovir ([9]; in vivo, po): large increase in absorption from the gut after oral administration
